# In patent US8143393B2, “Substituted 4-amino-pyrrolotriazine derivatives useful for treating hyper-proliferative disorders and diseases associated with angiogenesis” (Bayer HealthCare LLC, priority 2005, dated 2012):
# Biological target: T1, FGFR-1 (Homo sapiens, UniProt P11362)
# T1 construct: GST; made in house
# Experiment: FGFR-1 TR-FRET biochemical assay
# Method: FGFR-1TR-FRET Biochemical Assay
# The FGFR-1 Assay was performed on half well 96-well opaque plates (Costar 3915) in a LANCE format. LANCE is a homogenous time resolved fluormetry based application available through Perkin Elmer. For this assay, 50 uL reactions were set up using: 0.6 uM ATP (Sigma), 25 nM poly GT-biotin (CIS BIO International), 2 nM Eu-labelled phospho-Tyr Ab (PY20 PerkinElmer), 10 nM Streptavidin-APC (Perkin Elmer), 5 nM FGFR1-GST (generated by DRT, Bayer Healthcare), 1% DMSO, 50 mM HEPES pH 7.5, 10 mM MgCl2, 0.1 mM EDTA, 0.015% Brij, 0.1 mg/ml BSA, 0.1% B-mercaptoethanol. All reactions were initiated with the addition of enzyme and were left to incubate for one hour at room temperature. Time-resolved fluorescence was then read on a Perkin Elmer VictorV Multilabel counter. The reading protocol uses an excitation wavelength at 340 nm and emission reads at both 615 and 665 nm. Signal was calculated as a ratio: (Flourescence at 665 nm/Flourescence at 615 nM)*10000 for each well. The background control used for this assay is the signal produced with all assay components excluding ATP. For IC50 generation, compounds were added prior to the enzyme initiation. A 50-fold stock plate was made with compounds serially diluted 1:5 in a 50% DMSO/50% dH2O solution. A 1 μL addition of the stock to the assay wells gave final compound concentrations ranging from 10 μM-0.128 nM in 1% DMSO. The data were expressed as percent inhibition: % inhibition=100−((Signal with inhibitor−background)/(Signal without inhibitor−background))*100.
# [1] = 0.6 uM ATP, 5 nM FGFR1-GST, bounds given in nM
# T1 sequence (P11362 22-822): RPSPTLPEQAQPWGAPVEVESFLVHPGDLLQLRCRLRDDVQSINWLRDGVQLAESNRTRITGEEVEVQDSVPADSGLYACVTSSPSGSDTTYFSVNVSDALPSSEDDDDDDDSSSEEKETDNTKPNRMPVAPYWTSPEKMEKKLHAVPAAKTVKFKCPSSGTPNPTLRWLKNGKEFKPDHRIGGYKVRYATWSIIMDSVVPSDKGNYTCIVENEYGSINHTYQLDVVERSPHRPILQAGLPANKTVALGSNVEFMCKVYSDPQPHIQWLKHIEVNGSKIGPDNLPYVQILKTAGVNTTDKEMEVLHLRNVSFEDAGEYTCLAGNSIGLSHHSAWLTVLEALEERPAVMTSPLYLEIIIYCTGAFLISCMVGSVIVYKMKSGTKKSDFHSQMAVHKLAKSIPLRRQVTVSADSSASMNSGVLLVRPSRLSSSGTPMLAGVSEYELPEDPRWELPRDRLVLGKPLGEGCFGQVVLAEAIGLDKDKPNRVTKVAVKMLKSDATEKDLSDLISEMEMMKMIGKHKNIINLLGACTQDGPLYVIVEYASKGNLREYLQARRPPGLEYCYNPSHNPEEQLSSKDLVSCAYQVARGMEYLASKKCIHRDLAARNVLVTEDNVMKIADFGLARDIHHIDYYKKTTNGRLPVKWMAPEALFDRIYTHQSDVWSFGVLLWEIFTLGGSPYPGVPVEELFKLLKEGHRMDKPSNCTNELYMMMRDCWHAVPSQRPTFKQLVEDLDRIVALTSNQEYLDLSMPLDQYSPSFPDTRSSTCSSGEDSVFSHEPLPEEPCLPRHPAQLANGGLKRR
SMILES,IC50 [1] [nM],IC50 (upper bound of the bin 'greater than 100 nM but less than 1 μM' (lower bound in E1)) [nM]
"Nc1ncnn2c(CC3CNCCO3)cc(-c3ccc(NC(=O)Nc4cc(C(F)(F)F)ccc4F)c(F)c3)c12 (stereo not drawn) [Example 276, N-{4-[4-amino-7-(morpholin-2-ylmethyl)pyrrolo[2,1-f][1,2,4]triazin-5-yl]-2-fluorophenyl}-N′-[2-fluoro-5-(trifluoromethyl)phenyl]urea]",10 to 100,–
"COc1cc(NC(=O)Nc2cc(C(F)(F)F)ccc2F)ccc1-c1cc(CN2CCOCC2)n2ncnc(N)c12 [Example 37, N-{4-[4-amino-7-(morpholin-4-ylmethyl)pyrrolo[2,1-f][1,2,4]-triazin-5-yl]-3-methoxyphenyl}-N′-[2-fluoro-5-(trifluoromethyl)phenyl]urea]",10 to 100,–
"Nc1ncnn2c(C(O)CO)cc(-c3ccc(NC(=O)Nc4cc(C(F)(F)F)ccc4F)c(F)c3)c12 (stereo not drawn) [Example 254, N-{4-[4-amino-7-(1,2-dihydroxyethyl)pyrrolo[2,1-f][1,2,4]triazin-5-yl]-2-fluorophenyl}-N′-[2-fluoro-5-(trifluoromethyl)phenyl]urea]",> 100,< 1000
"Nc1ncnn2c(C3CCN(C(=O)C4CC4)CC3)cc(-c3ccc(NC(=O)Nc4cc(C(F)(F)F)ccc4F)c(Cl)c3)c12 [Example 230, N-(4-{4-amino-7-[1-(cyclopropylcarbonyl)piperidin-4-yl]pyrrolo[2,1-f][1,2,4]triazin-5-yl}-2-chlorophenyl)-N′-[2-fluoro-5-(trifluoromethyl)phenyl]urea]",10 to 100,–
"COc1cc(-c2cc(CN3CCOCC3)n3ncnc(N)c23)ccc1NC(=O)Nc1ccc(F)c(C(F)(F)F)c1 [Example 32, N-{4-[4-amino-7-(morpholin-4-ylmethyl)pyrrolo[2,1-f][1,2,4]triazin-5-yl]-2-methoxyphenyl}-N′-[4-fluoro-3-(trifluoromethyl)phenyl]urea]",10 to 100,–
"Nc1ncnn2c(CCN3CCCC3)cc(-c3ccc(NC(=O)Nc4cc(C(F)(F)F)ccc4F)c(F)c3)c12 [Example 216, N-{4-[4-amino-7-(2-pyrrolidin-1-ylethyl)pyrrolo[2,1-f][1,2,4]triazin-5-yl]-2-fluorophenyl}-N′-[2-fluoro-5-(trifluoromethyl)phenyl]urea]",10 to 100,–
"CC(=O)N1CCC(c2cc(-c3ccc(NC(=O)Nc4cc(C(F)(F)F)ccc4F)c(F)c3)c3c(N)ncnn23)C1 (stereo not drawn) [Example 202, N-{4-[7-(1-acetylpyrrolidin-3-yl)-4-aminopyrrolo[2,1-f][1,2,4]triazin-5-yl]-2-fluorophenyl}-N′-[2-fluoro-5-(trifluoromethyl)phenyl]urea]",< 10,–
"Nc1ncnn2c(C3CCN(CC(=O)O)CC3)cc(-c3ccc(NC(=O)Nc4cc(C(F)(F)F)ccc4F)c(F)c3)c12 [Example 119, [4-(4-amino-5-3-fluoro-4-[([2-fluoro-5-(trifluoromethyl)-phenyl]aminocarbonyl)amino]phenylpyrrolo[2,1-f][1,2,4]triazin-7-yl)piperidin-1-yl]acetic acid]",< 10,–
"Nc1ncnn2c(C(=O)NCC3CNCCO3)cc(-c3ccc(NC(=O)Nc4cc(C(F)(F)F)ccc4F)c(F)c3)c12 (stereo not drawn) [Example 283, 4-amino-5-{3-fluoro-4-[({[2-fluoro-5-(trifluoromethyl)-phenyl]amino}carbonyl)amino]phenyl}-N-(morpholin-2-ylmethyl)pyrrolo[2,1-f][1,2,4]triazine-7-carboxamide]",10 to 100,–
"COC[C@@H]1CCCN1CCc1cc(-c2ccc(NC(=O)Nc3cc(C(F)(F)F)ccc3F)c(F)c2)c2c(N)ncnn12 [Example 215, N-[4-(4-amino-7-{2-[2-(methoxymethyl)pyrrolidin-1-yl]ethyl}pyrrolo-[2,1-f][1,2,4]triazin-5-yl)-2-fluorophenyl]-N′-[2-fluoro-5-(trifluoromethyl)phenyl]urea]",10 to 100,–
"CC(=O)N1CCN(Cc2cc(-c3ccc(NC(=O)Nc4cc(C(F)(F)F)ccc4F)c(F)c3)c3c(N)ncnn23)CC1 [Example 89, N-(4-{7-[(4-acetylpiperazin-1-yl)methyl]-4-aminopyrrolo[2,1-f][1,2,4]triazin-5-yl}-2-fluorophenyl)-N′-[2-fluoro-5-(trifluoromethyl)phenyl]urea]",< 10,–
"CC(=O)N1CCC(c2cc(-c3ccc(NC(=O)Nc4cc(C(F)(F)F)ccn4)c(F)c3)c3c(N)ncnn23)CC1 [Example 237, N-{4-[7-(1-acetylpiperidin-4-yl)-4-aminopyrrolo[2,1-f][1,2,4]triazin-5-yl]-2-fluorophenyl}-N′-[4-(trifluoromethyl)pyridin-2-yl]urea]",< 10,–
"CCOCCN1CCC(c2cc(-c3ccc(NC(=O)Nc4cc(C(F)(F)F)ccc4F)c(Cl)c3)c3c(N)ncnn23)CC1 [Example 243, N-(4-{4-amino-7-[1-(2-ethoxyethyl)piperidin-4-yl]pyrrolo[2,1-f][1,2,4]triazin-5-yl}-2-chlorophenyl)-N′-[2-fluoro-5-(trifluoromethyl)phenyl]urea]",10 to 100,–
"Nc1ncnn2c(CN3CCOCC3)cc(-c3ccc(NC(=O)Nc4cc(C(F)(F)F)ccn4)nc3)c12 [Example 12, N-{5-[4-amino-7-(morpholin-4-ylmethyl)pyrrolo[2,1-f][1,2,4]triazin-5-yl]pyridin-2-yl}-N′-[4-(trifluoromethyl)pyridin-2-yl]urea]",< 10,–

# More lines, now with the values ahead:
IC50 [1] [nM],IC50 (upper bound of the bin 'greater than 100 nM but less than 1 μM' (lower bound in E1)) [nM],SMILES
< 10,–,"CNC(=O)CN1CCC(c2cc(-c3ccc(NC(=O)Nc4cc(C(F)(F)F)ccc4F)c(F)c3)c3c(N)ncnn23)CC1 [Example 120, 2-[4-(4-amino-5-3-fluoro-4-[([2-fluoro-5-(trifluoromethyl)phenyl]aminocarbonyl)amino]phenylpyrrolo[2,1-f][1,2,4]triazin-7-yl)piperidin-1-yl]-N-methylacetamide]"
< 10,–,"Nc1ncnn2c(CN3CCOCC3)cc(-c3ccc(NC(=O)Nc4cc(C(F)(F)F)cc[n+]4[O-])c(F)c3)c12 [Example 287, N-{4-[4-amino-7-(morpholin-4-ylmethyl)pyrrolo[2,1-f][1,2,4]triazin-5-yl]-2-fluorophenyl}-N′-[1-oxido-4-(trifluoromethyl)pyridin-2-yl]urea]"
< 10,–,"Nc1ncnn2c(C3CCN(C(=O)CO)CC3)cc(-c3ccc(NC(=O)Nc4cc(C(F)(F)F)ccn4)c(F)c3)c12 [Example 236, N-{4-[4-amino-7-(1-glycoloylpiperidin-4-yl)pyrrolo[2,1-f][1,2,4]triazin-5-yl]-2-fluorophenyl}-N′-[4-(trifluoromethyl)pyridin-2-yl]urea]"
< 10,–,"Nc1ncnn2c(C3CCN(CC(O)CO)CC3)cc(-c3ccc(NC(=O)Nc4cc(C(F)(F)F)ccc4F)c(F)c3)c12 (stereo not drawn) [Example 121, N-(4-4-amino-7-[1-(2,3-dihydroxypropyl)piperidin-4-yl]pyrrolo[2,1-f][1,2,4]triazin-5-yl-2-fluorophenyl)-N′-[2-fluoro-5-(trifluoromethyl)-phenyl]urea]"
< 10,–,"Nc1ncnn2c(CCN3CCCOCC3)cc(-c3ccc(NC(=O)Nc4cc(C(F)(F)F)ccc4F)c(F)c3)c12 [Example 226, N-(4-{4-amino-7-[2-(1,4-oxazepan-4-yl)ethyl]pyrrolo[2,1-f][1,2,4]triazin-5-yl}-2-fluorophenyl)-N′-[2-fluoro-5-(trifluoromethyl)phenyl]urea]"
< 10,–,"CN1CCN(C(=O)c2cc(-c3ccc(NC(=O)Nc4cc(C(F)(F)F)ccc4F)c(F)c3)c3c(N)ncnn23)CC1 [Example 161, N-(4-{4-amino-7-[(4-methylpiperazin-1-yl)carbonyl]pyrrolo[2,1-f][1,2,4]triazin-5-yl}-2-fluorophenyl)-N′-[2-fluoro-5-(trifluoromethyl)phenyl]urea]"
